Experimental data as given in PubChem BioAssay (NCI).
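The compound was tested at five concentrations on cells cultured in 96-well plates, with a 48-hour exposure period. Abbreviation: GI50, concentration required for 50% inhibition of growth. Definition used: TGI = concentration required for complete inhibition of growth.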

These compounds were tested on SNB-78 CNS (assay: NCI tumour cell line growth inhibition, 48 h).

Compound | TGI [µM] | GI50 [nM]
N#CC1(C2SCCS2=O)C2=C(C(=O)c3ccccc3C2=O)N2CCCC21 (configuration not stated) | 6.89 | 
CC(C)(C)C(=O)/C=C/c1ccc(Oc2ccccc2)cc1 | 75.7 | 
CC1=C(C(=O)Nc2c(C)cccc2C)C(c2ccccc2Cl)C(C(=O)Nc2c(C)cccc2C)=C(C)N1 | > 100 | 
O=C1CSC(Cc2nc3ccccc3[nH]2)=N1 | > 100 | 
COc1ccccc1NC(=O)C1=C(C)NC(C)=C(C(=O)Nc2ccccc2OC)C1c1ccc([N+](=O)[O-])cc1 | > 100 | 
O=C(/C=C/c1c(O)ccc2ccccc12)c1ccc2ccccc2c1 | > 100 | 
O=[N+]([O-])c1ccc(-n2nnc(C3=NCCCN3)c2-c2ccc(Cl)cc2)cc1 | > 100 | 
COC(=O)C12C3C4C5(C(=O)OC)C(C1C35C(=O)N(C(C)C)C(C)C)C42C(=O)N(C(C)C)C(C)C (configuration not stated) | > 50 | 
N#CC(C#N)=c1[nH]c2cccc3c2-c2c(cccc2c3=C(C#N)C#N)[nH]1 | > 100 | 
COC(=O)/C=C/C1C(C(=O)OC)C2(C(=O)OC)CCC1(C(=O)OC)N2 (configuration not stated) | > 100 | 
N#CC(C(=O)/C(=N/Nc1nc(=S)[nH]n1N)C(C#N)c1ccccc1)c1ccccc1 (configuration not stated) | > 100 | 
N#CC(/C(=N/NC(=O)C(=O)NN)C(=O)NC12CC3CC(CC(C3)C1)C2)c1ccccc1 (configuration not stated) | > 100 | 
CC(=O)OCC1OC([S-])C(OC(C)=O)C(OC(C)=O)C1OC(C)=O.CC[PH+](CC)CC.CC[PH+](CC)CC.[Au].[Au] (configuration not stated) | 2.79 | 311
Cc1cc(C)n(CCNCCn2nc(C)cc2C)n1 | > 100 | 
COc1cc2c(cc1OCc1ccccc1)CNCC2 | > 100 | 
O=C(CN1CCCCC1)N1CCc2c([nH]c3ccccc23)C1c1cccnc1 (configuration not stated) | > 100 | 
CCCCCCCCCc1cc(=O)c2c(O)cccc2o1 | > 100 | 
O=C(C[n+]1ccccc1)NNC(=O)/C(=C/c1ccc2c(c1)OCO2)NC(=O)c1ccccc1 | > 100 | 
Clc1ccc(-c2c(C3=NCCN3)nnn2-c2ccc(Cl)cc2)cc1 | 61.7 | 
CC(C)(C)N1CC2(CCCCC2)C1=O | > 100 | 
O=C(CCC(=O)Nc1cccc(Cl)c1)CC(=O)c1ccc(Cl)cc1 | > 100 | 
NC1CCCC[C@H]1N.N[C@@H]1CCCC[C@@H]1N.O=C(P(=O)([O-])[O-])P(=O)([O-])[O-].[Pt+4].[Pt+4] | > 100 | > 100000
O=C(CSc1nnc(-c2ccccc2NC(=O)C(F)(F)F)c(=O)[nH]1)NC(=O)Nc1ccccc1 | > 100 | 
CCOC(=O)c1[nH]c(COC(C)=O)c(CCCOC(C)=O)c1CCCOC(C)=O | > 100 | 
COc1ccc(C(=O)C(CO)Oc2ccccc2OC)cc1OC (configuration not stated) | > 100 | 

These compounds were tested on KM20L2 colon (assay: NCI tumour cell line growth inhibition, 48 h).

Compound | TGI [µM] | GI50 [nM]
N#CC1(C2SCCS2=O)C2=C(C(=O)c3ccccc3C2=O)N2CCCC21 (configuration not stated) | 19.3 | 
CC(C)(C)C(=O)/C=C/c1ccc(Oc2ccccc2)cc1 | 40.2 | 
CC1=C(C(=O)Nc2c(C)cccc2C)C(c2ccccc2Cl)C(C(=O)Nc2c(C)cccc2C)=C(C)N1 | > 100 | 
O=C1CSC(Cc2nc3ccccc3[nH]2)=N1 | 33.3 | 
COc1ccccc1NC(=O)C1=C(C)NC(C)=C(C(=O)Nc2ccccc2OC)C1c1ccc([N+](=O)[O-])cc1 | > 100 | 
CCOC(=O)[C@H](CCCNC(=O)OC(C)(C)C)NCc1ccc(OC)c(OC)c1 | > 100 | 
O=C(/C=C/c1c(O)ccc2ccccc12)c1ccc2ccccc2c1 | > 100 | 
O=[N+]([O-])c1ccc(-n2nnc(C3=NCCCN3)c2-c2ccc(Cl)cc2)cc1 | > 100 | 
COC(=O)C12C3C4C5(C(=O)OC)C(C1C35C(=O)N(C(C)C)C(C)C)C42C(=O)N(C(C)C)C(C)C (configuration not stated) | > 50 | 
N#CC(C#N)=c1[nH]c2cccc3c2-c2c(cccc2c3=C(C#N)C#N)[nH]1 | > 100 | 
COC(=O)/C=C/C1C(C(=O)OC)C2(C(=O)OC)CCC1(C(=O)OC)N2 (configuration not stated) | > 100 | 
N#CC(C(=O)/C(=N/Nc1nc(=S)[nH]n1N)C(C#N)c1ccccc1)c1ccccc1 (configuration not stated) | > 100 | 
N#CC(/C(=N/NC(=O)C(=O)NN)C(=O)NC12CC3CC(CC(C3)C1)C2)c1ccccc1 (configuration not stated) | > 100 | 
CC(=O)OCC1OC([S-])C(OC(C)=O)C(OC(C)=O)C1OC(C)=O.CC[PH+](CC)CC.CC[PH+](CC)CC.[Au].[Au] (configuration not stated) | 2.2 | 792
Cc1cc(C)n(CCNCCn2nc(C)cc2C)n1 | > 100 | 
COc1cc2c(cc1OCc1ccccc1)CNCC2 | > 100 | 
O=C(CN1CCCCC1)N1CCc2c([nH]c3ccccc23)C1c1cccnc1 (configuration not stated) | > 100 | 
O=C(C[n+]1ccccc1)NNC(=O)/C(=C/c1ccc2c(c1)OCO2)NC(=O)c1ccccc1 | > 100 | 
O=S(O)CCCCSSCc1ccccc1CSSCCCCS(=O)O | > 100 | 
Clc1ccc(-c2c(C3=NCCN3)nnn2-c2ccc(Cl)cc2)cc1 | 32.7 | 
CC(C)(C)N1CC2(CCCCC2)C1=O | > 100 | 
O=C(CCC(=O)Nc1cccc(Cl)c1)CC(=O)c1ccc(Cl)cc1 | > 100 | 
NC1CCCC[C@H]1N.N[C@@H]1CCCC[C@@H]1N.O=C(P(=O)([O-])[O-])P(=O)([O-])[O-].[Pt+4].[Pt+4] | > 100 | > 100000
CCOC(=O)c1[nH]c(COC(C)=O)c(CCCOC(C)=O)c1CCCOC(C)=O | > 100 | 
COc1ccc(C(=O)C(CO)Oc2ccccc2OC)cc1OC (configuration not stated) | > 100 | 

These compounds were tested on M19-MEL melanoma (assay: NCI tumour cell line growth inhibition, 48 h).

Compound | TGI [µM] | GI50 [µM]
N#CC1(C2SCCS2=O)C2=C(C(=O)c3ccccc3C2=O)N2CCCC21 (configuration not stated) | 0.788 | 
CC(C)(C)C(=O)/C=C/c1ccc(Oc2ccccc2)cc1 | > 100 | 
CC1=C(C(=O)Nc2c(C)cccc2C)C(c2ccccc2Cl)C(C(=O)Nc2c(C)cccc2C)=C(C)N1 | > 100 | 
O=C1CSC(Cc2nc3ccccc3[nH]2)=N1 | > 59 | 
CCOC(=O)[C@H](CCCNC(=O)OC(C)(C)C)NCc1ccc(OC)c(OC)c1 | > 100 | 
O=C(/C=C/c1c(O)ccc2ccccc12)c1ccc2ccccc2c1 | 35.9 | 
O=[N+]([O-])c1ccc(-n2nnc(C3=NCCCN3)c2-c2ccc(Cl)cc2)cc1 | > 100 | 
COC(=O)C12C3C4C5(C(=O)OC)C(C1C35C(=O)N(C(C)C)C(C)C)C42C(=O)N(C(C)C)C(C)C (configuration not stated) | > 50 | 
COC(=O)/C=C/C1C(C(=O)OC)C2(C(=O)OC)CCC1(C(=O)OC)N2 (configuration not stated) | > 100 | 
N#CC(C(=O)/C(=N/Nc1nc(=S)[nH]n1N)C(C#N)c1ccccc1)c1ccccc1 (configuration not stated) | > 100 | 
N#CC(/C(=N/NC(=O)C(=O)NN)C(=O)NC12CC3CC(CC(C3)C1)C2)c1ccccc1 (configuration not stated) | > 100 | 
CC(=O)OCC1OC([S-])C(OC(C)=O)C(OC(C)=O)C1OC(C)=O.CC[PH+](CC)CC.CC[PH+](CC)CC.[Au].[Au] (configuration not stated) | 0.806 | 
Cc1cc(C)n(CCNCCn2nc(C)cc2C)n1 | > 100 | 
COc1cc2c(cc1OCc1ccccc1)CNCC2 | > 100 | 
O=C(CN1CCCCC1)N1CCc2c([nH]c3ccccc23)C1c1cccnc1 (configuration not stated) | > 100 | 
CCCCCCCCCc1cc(=O)c2c(O)cccc2o1 | > 10 | 
O=C(C[n+]1ccccc1)NNC(=O)/C(=C/c1ccc2c(c1)OCO2)NC(=O)c1ccccc1 | > 100 | 
O=S(O)CCCCSSCc1ccccc1CSSCCCCS(=O)O | 21.2 | 
Clc1ccc(-c2c(C3=NCCN3)nnn2-c2ccc(Cl)cc2)cc1 | 30.5 | 
CC(C)(C)N1CC2(CCCCC2)C1=O | > 100 | 
NC1CCCC[C@H]1N.N[C@@H]1CCCC[C@@H]1N.O=C(P(=O)([O-])[O-])P(=O)([O-])[O-].[Pt+4].[Pt+4] | > 100 | 73
O=C(CSc1nnc(-c2ccccc2NC(=O)C(F)(F)F)c(=O)[nH]1)NC(=O)Nc1ccccc1 | > 100 | 
COc1ccc(C(=O)C(CO)Oc2ccccc2OC)cc1OC (configuration not stated) | > 100 | 

Each compound was assayed on DMS 114 small cell lung (assay: NCI tumour cell line growth inhibition, 48 h).

Compound | TGI [µM]
N#CC1(C2SCCS2=O)C2=C(C(=O)c3ccccc3C2=O)N2CCCC21 (configuration not stated) | 6
CC1=C(C(=O)Nc2c(C)cccc2C)C(c2ccccc2Cl)C(C(=O)Nc2c(C)cccc2C)=C(C)N1 | > 100
O=C1CSC(Cc2nc3ccccc3[nH]2)=N1 | > 59.2
COc1ccccc1NC(=O)C1=C(C)NC(C)=C(C(=O)Nc2ccccc2OC)C1c1ccc([N+](=O)[O-])cc1 | > 100
CCOC(=O)[C@H](CCCNC(=O)OC(C)(C)C)NCc1ccc(OC)c(OC)c1 | > 100
O=C(/C=C/c1c(O)ccc2ccccc12)c1ccc2ccccc2c1 | > 100
COC(=O)C12C3C4C5(C(=O)OC)C(C1C35C(=O)N(C(C)C)C(C)C)C42C(=O)N(C(C)C)C(C)C (configuration not stated) | > 50
N#CC(C#N)=c1[nH]c2cccc3c2-c2c(cccc2c3=C(C#N)C#N)[nH]1 | > 100
N#CC(C(=O)/C(=N/Nc1nc(=S)[nH]n1N)C(C#N)c1ccccc1)c1ccccc1 (configuration not stated) | > 100
N#CC(/C(=N/NC(=O)C(=O)NN)C(=O)NC12CC3CC(CC(C3)C1)C2)c1ccccc1 (configuration not stated) | > 100
Cc1cc(C)n(CCNCCn2nc(C)cc2C)n1 | > 100
COc1cc2c(cc1OCc1ccccc1)CNCC2 | > 100
O=C(CN1CCCCC1)N1CCc2c([nH]c3ccccc23)C1c1cccnc1 (configuration not stated) | > 100
CCCCCCCCCc1cc(=O)c2c(O)cccc2o1 | > 100
O=C(C[n+]1ccccc1)NNC(=O)/C(=C/c1ccc2c(c1)OCO2)NC(=O)c1ccccc1 | 46.4
O=S(O)CCCCSSCc1ccccc1CSSCCCCS(=O)O | 35.2
Clc1ccc(-c2c(C3=NCCN3)nnn2-c2ccc(Cl)cc2)cc1 | 31.5
CC(C)(C)N1CC2(CCCCC2)C1=O | > 100
COc1ccc(C(=O)C(CO)Oc2ccccc2OC)cc1OC (configuration not stated) | > 100
